Where a name gives a salt, the structure may show the parent alone.
What follows are compounds tested on Acinetobacter baumannii ATCC17978 (assay: Antimicrobial susceptibility testing, 90% growth inhibitory concentration (IC90) determination, ATCC17978). Conditions: Iso-Sensitest broth, OD 600 nm over 16 h, 35±2° C., read-out: ATCC 17978 IC90.
Assay type: cell-based
Method: Antimicrobial Susceptibility Testing: 90% Growth Inhibitory Concentration (IC90) Determination The in vitro antimicrobial activity of the compounds was determined according to the following procedure: The assay used a 10-points Iso-Sensitest broth medium to measure quantitatively the in vitro activity of the compounds against Acinetobacter baumannii ATCC17978 or ATCC17961. Stock compounds in DMSO were serially twofold diluted (e.g. range from 50 to 0.097 μM final concentration) in 384 wells microtiter plates and inoculated with 49 μl the bacterial suspension in Iso-Sensitest medium to have a final cell concentration of ˜5×10^(5) CFU/ml in a final volume/well of 50 ul/well. Microtiter plates were incubated at 35±2° C. Bacterial cell growth was determined with the measurement of optical density at X=600 nm each 20 minutes over a time course of 16 h. Growth inhibition was calculated during the logarithmic growth of the bacterial cells with determination of the concentration inhibiting 50% (IC50) and 90% (IC90) of the growth. Table 1 provides the 90% growth inhibitory concentrations (IC90) in micromoles per liter of the compounds of present invention obtained against the strain Acinetobacter baumannii ATCC17978.

SMILES	IC90
COc1ccc(-c2cnc(C(=O)Nc3ccc(C(=O)N[C@H]4C[C@@H](NC(=O)C5C[C@@H](O)CN5)C4)c(Cl)c3)n2C)c(F)c1F (stereo in doubt) [Example B38, N-[3-chloro-4-[[3-[[(4R)-4-hydroxypyrrolidine-2-carbonyl]amino]cyclobutyl]carbamoyl]phenyl]-5-(2,3-difluoro-4-methoxy-phenyl)-1-methyl-imidazole-2-carboxamide;formic acid]	0.055 µM
COc1ccc(-c2cnc(C(=O)Nc3ccc(C(=O)NCCOCCN)c(Cl)c3)n2C)c(F)c1F [Example A1, N-[4-[2-(2-Aminoethoxy)ethylcarbamoyl]-3-chloro-phenyl]-5-(2,3-difluoro-4-methoxy-phenyl)-1-methyl-imidazole-2-carboxamide]	0.24 µM
COc1ccc(-c2cnc(C(=O)Nc3ccc(C(=O)NCCN4CCNCC4)c(Cl)c3)n2C)c(F)c1F [Example A2, N-[3-chloro-4-(2-piperazin-1-ylethylcarbamoyl)phenyl]-5-(2,3-difluoro-4-methoxy-phenyl)-1-methyl-imidazole-2-carboxamide]	0.61 µM
COc1ccc(-c2cnc(C(=O)Nc3ccc(C(=O)NC4CCNC4)c(Cl)c3)n2C)c(F)c1F (centres unmarked) [Example A3, N-[3-chloro-4-(pyrrolidin-3-ylcarbamoyl)phenyl]-5-(2,3-difluoro-4-methoxy-phenyl)-1-methyl-imidazole-2-carboxamide;formic acid]	0.31 µM
COc1ccc(-c2cnc(C(=O)Nc3ccc(C(=O)NC4CCNCC4)c(Cl)c3)n2C)c(F)c1F [Example A4, N-[3-chloro-4-(4-piperidylcarbamoyl)phenyl]-5-(2,3-difluoro-4-methoxy-phenyl)-1-methyl-imidazole-2-carboxamide;formic acid]	0.44 µM
COc1ccc(-c2cnc(C(=O)Nc3ccc(C(=O)NCC4CCNCC4)c(Cl)c3)n2C)c(F)c1F [Example A5, N-[3-chloro-4-(4-piperidylmethylcarbamoyl)phenyl]-5-(2,3-difluoro-4-methoxy-phenyl)-1-methyl-imidazole-2-carboxamide;formic acid]	0.55 µM
COc1ccc(-c2cnc(C(=O)Nc3ccc(C(=O)NCCCCCCN)c(Cl)c3)n2C)c(F)c1F [Example A6, N-[4-(6-aminohexylcarbamoyl)-3-chloro-phenyl]-5-(2,3-difluoro-4-methoxy-phenyl)-1-methyl-imidazole-2-carboxamide]	0.15 µM
COc1ccc(-c2cnc(C(=O)Nc3ccc(C(=O)NCC4CC(CN)C4)c(Cl)c3)n2C)c(F)c1F (centres unmarked) [Example A7, N-[4-[[3-(aminomethyl)cyclobutyl]methylcarbamoyl]-3-chloro-phenyl]-5-(2,3-difluoro-4-methoxy-phenyl)-1-methyl-imidazole-2-carboxamide;formic acid]	0.24 µM
COc1ccc(-c2cnc(C(=O)Nc3ccc(C(=O)NCC4CC(N)C4)c(Cl)c3)n2C)c(F)c1F (centres unmarked) [Example A8, N-[4-[(3-aminocyclobutyl)methylcarbamoyl]-3-chloro-phenyl]-5-(2,3-difluoro-4-methoxy-phenyl)-1-methyl-imidazole-2-carboxamide;formic acid]	0.5 µM
Cn1c(-c2ccc(OCC#N)c(F)c2F)cnc1C(=O)Nc1ccc(C(=O)NCCOCCN)c(Cl)c1 [Example A9, N-[4-[2-(2-aminoethoxy)ethylcarbamoyl]-3-chloro-phenyl]-5-[4-(cyanomethoxy)-2,3-difluoro-phenyl]-1-methyl-imidazole-2-carboxamide;formic acid]	0.25 µM
Cn1c(-c2ccc(OCC#N)c(F)c2F)cnc1C(=O)Nc1ccc(C(=O)NCCN2CCNCC2)c(Cl)c1 [Example A10, N-[3-chloro-4-(2-piperazin-1-ylethylcarbamoyl)phenyl]-5-[4-(cyanomethoxy)-2,3-difluoro-phenyl]-1-methyl-imidazole-2-carboxamide;2,2,2-trifluoroacetic acid]	0.36 µM
Cn1c(-c2ccc(OCC#N)c(F)c2F)cnc1C(=O)Nc1ccc(C(=O)NCCCN2CCNCC2)c(Cl)c1 [Example A11, N-[3-chloro-4-(3-piperazin-1-ylpropylcarbamoyl)phenyl]-5-[4-(cyanomethoxy)-2,3-difluoro-phenyl]-1-methyl-imidazole-2-carboxamide;2,2,2-trifluoroacetic acid]	0.31 µM
Cc1cc(NC(=O)c2ncc(-c3ccc(OCC#N)c(F)c3F)n2C)ccc1C(=O)NCCCN1CCNCC1 [Example A12, 5-[4-(cyanomethoxy)-2,3-difluoro-phenyl]-1-methyl-N-[3-methyl-4-(3-piperazin-1-ylpropylcarbamoyl)phenyl]imidazole-2-carboxamide;2,2,2-trifluoroacetic acid]	0.34 µM
CCc1cc(NC(=O)c2ncc(-c3ccc(OC)c(F)c3F)n2C)ccc1C(=O)NCCOCCN [Example A13, N-[4-[2-(2-aminoethoxy)ethylcarbamoyl]-3-ethyl-phenyl]-5-(2,3-difluoro-4-methoxy-phenyl)-1-methyl-imidazole-2-carboxamide;formic acid]	0.59 µM
CCc1cc(NC(=O)c2ncc(-c3ccc(OC(F)F)cc3)n2C)ccc1C(=O)NCCOCCN [Example A14, N-[4-[2-(2-aminoethoxy)ethylcarbamoyl]-3-ethyl-phenyl]-5-[4-(difluoromethoxy)phenyl]-1-methyl-imidazole-2-carboxamide;hydrochloride]	3 µM
CCc1cc(NC(=O)c2ncc(-c3ccc(OC(C)C)c(F)c3)n2C)ccc1C(=O)NCCOCCN [Example A15, N-[4-[2-(2-aminoethoxy)ethylcarbamoyl]-3-ethyl-phenyl]-5-(3-fluoro-4-isopropoxy-phenyl)-1-methyl-imidazole-2-carboxamide;hydrochloride]	4.5 µM
CCc1cc(NC(=O)c2ncc(-c3ccc(OC)cc3Cl)n2C)ccc1C(=O)NCCOCCN [Example A16, N-[4-[2-(2-aminoethoxy)ethylcarbamoyl]-3-ethyl-phenyl]-5-(2-chloro-4-methoxy-phenyl)-1-methyl-imidazole-2-carboxamide;hydrochloride]	1.5 µM
CCc1cc(NC(=O)c2ncc(-c3ccc(OC(F)F)c(F)c3F)n2C)ccc1C(=O)NCCOCCN [Example A17, N-[4-[2-(2-aminoethoxy)ethylcarbamoyl]-3-ethyl-phenyl]-5-[4-(difluoromethoxy)-2,3-difluoro-phenyl]-1-methyl-imidazole-2-carboxamide;hydrochloride]	0.4 µM
CCc1cc(NC(=O)c2ncc(-c3c(F)cc(OC)cc3F)n2C)ccc1C(=O)NCCOCCN [Example A18, N-[4-[2-(2-aminoethoxy)ethylcarbamoyl]-3-ethyl-phenyl]-5-(2,6-difluoro-4-methoxy-phenyl)-1-methyl-imidazole-2-carboxamide;hydrochloride]	1.2 µM
Cn1c(-c2ccc(OC(F)F)c(F)c2F)cnc1C(=O)Nc1ccc(C(=O)NCCCN)c(Cl)c1 [Example A19, N-[4-(3-Aminopropylcarbamoyl)-3-chloro-phenyl]-5-[4-(difluoromethoxy)-2,3-difluoro-phenyl]-1-methyl-imidazole-2-carboxamide]	1.4 µM
CCc1cc(NC(=O)c2ncc(-c3ccc(OCC#N)c(F)c3F)n2C)ccc1C(=O)NCCOCCN [Example A20, N-[4-[2-(2-aminoethoxy)ethylcarbamoyl]-3-ethyl-phenyl]-5-[4-(cyanomethoxy)-2,3-difluoro-phenyl]-1-methyl-imidazole-2-carboxamide;hydrochloride]	0.96 µM
CCc1cc(NC(=O)c2ncc(-c3ccc(OCC(N)=O)c(F)c3F)n2C)ccc1C(=O)NCCOCCN [Example A21, N-[4-[2-(2-aminoethoxy)ethylcarbamoyl]-3-ethyl-phenyl]-5-[4-(2-amino-2-oxo-ethoxy)-2,3-difluoro-phenyl]-1-methyl-imidazole-2-carboxamide;hydrochloride]	4.7 µM
CCc1cc(NC(=O)c2ncc(-c3ccc(OCC#N)c(F)c3Cl)n2C)ccc1C(=O)NCCOCCN [Example A22, N-[4-[2-(2-aminoethoxy)ethylcarbamoyl]-3-ethyl-phenyl]-5-[2-chloro-4-(cyanomethoxy)-3-fluoro-phenyl]-1-methyl-imidazole-2-carboxamide;hydrochloride]	0.18 µM
COc1ccc(-c2cnc(C(=O)Nc3ccc(C(=O)NC4CCN(C(=O)CN(C)C)C4)c(Cl)c3)n2C)c(F)c1F (centres unmarked) [Example A23, N-[3-Chloro-4-[[1-[2-(dimethylamino)acetyl]pyrrolidin-3-yl]carbamoyl]phenyl]-5-(2,3-difluoro-4-methoxy-phenyl)-1-methyl-imidazole-2-carboxamide]	0.22 µM
COc1ccc(-c2cnc(C(=O)Nc3ccc(C(=O)NCCNC(=O)CN(C)C)c(Cl)c3)n2C)c(F)c1F [Example A24, N-[3-chloro-4-[2-[[2-(dimethylamino)acetyl]amino]ethylcarbamoyl]phenyl]-5-(2,3-difluoro-4-methoxy-phenyl)-1-methyl-imidazole-2-carboxamide;2,2,2-trifluoroacetic acid]	0.67 µM
COc1ccc(-c2cnc(C(=O)Nc3ccc(C(=O)NC4CCN(C(=O)CN(C)C)CC4)c(Cl)c3)n2C)c(F)c1F [Example A25, N-[3-chloro-4-[[1-[2-(dimethylamino)acetyl]-4-piperidyl]carbamoyl]phenyl]-5-(2,3-difluoro-4-methoxy-phenyl)-1-methyl-imidazole-2-carboxamide]	0.13 µM

From US20230257354A1, “NOVEL HETEROCYCLIC COMPOUNDS” (Hoffmann-La Roche Inc., priority 2020, published 2023)
